Assay results taken from patent EP0745595A1, “3-(3-Aryloxyphenyl)-1-(substituted methyl)-s-triazine-2,4,6-oxo or thiotrione herbicidal agents” (American Cyanamid Company, priority 1995, dated 1996).

What was measured:
Assay type in all cases: in vivo
[1] = system: ECHINOCHLOA CRUS-GALLI, (L) BEAU; experiment: Postemergence herbicidal evaluation, ECHCG (Barnyardgrass); design: key to ECHCG rating / Herbicidal effect rating, ECHCG / ECHCG: 0-9 visual rating scale vs untreated control
Method in brief: (§1)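 Postemergence foliar spray at approximately 0.125–0.500 kg/ha onto two-week seedlings; greenhouse hold, then 0–9 visual injury rating after 4–5 weeks.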

[2] = system: TRITICUM AESTIVUM, CV. APOLLO; experiment: Postemergence herbicidal evaluation, TRZAWO (Wheat, Winter, CV. APOLLO)
Procedure: In the tests, seedling plants are grown in jiffy flats for about two weeks. The test compounds are dispersed in 50/50 acetone/water mixtures containing 0.5% TWEEN®20, a polyoxyethylene sorbitan monolaurate surfactant of Atlas Chemical Industries, […] through a spray nozzle operating at 40 psi for a predetermined time. After spraying, the plants are placed on greenhouse benches and are cared for in the usual manner, commensurate with conventional greenhouse practices. From four to five weeks after treatment, the seedling plants are examined and rated according to the rating system set forth below. Where more than one test is involved for a given compound, the data are averaged.
Plant species employed in these evaluations are reported by header abbreviation, common name and scientific name.
Results of herbicide evaluation are expressed on a rating scale (0-9). The scale is based upon a visual observation of plant stand, vigor, malformation, size, chlorosis and overall plant appearance as compared with a control.

CHENOPODIUM ALBUM, L. [3] = experiment: Preemergence herbicidal evaluation, CHEAL (Lambsquarters, Common); settings: rated four to five weeks after treatment
Method in brief: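 Greenhouse preemergence test; treated soil cups received compound in aqueous acetone (about 0.125 to 0.50 kg/ha) right after sowing and were assessed visually 4-5 weeks later on a 0-9 scale compared with control plants.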

[4] = system: SETARIA VIRIDIS, (L) BEAU; experiment: Postemergence herbicidal evaluation, SETVI (Foxtail, Green); design: key to SETVI rating / Herbicidal effect rating, SETVI / SETVI: 0-9 visual rating scale vs untreated control
Method in brief: as §1

[5] = system: AMBROSIA ARTEMISIIFOLIA, L.; experiment: Postemergence herbicidal evaluation, AMBEL (Ragweed, Common)
Method in brief: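 Postemergence herbicidal activity on AMBEL (common ragweed) was assessed on two-week-old seedlings grown in jiffy flats. Treatment solutions of 50/50 acetone/water with 0.5% TWEEN®20 surfactant were sprayed at 40 psi. After four to five weeks in the greenhouse, plants were scored 0-9 against a control for stand, vigor, malformation, size, chlorosis and overall appearance, with multiple tests averaged.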

[6] = system: ORYZA SATIVA, L. TEBONNET; experiment: Rice tolerance to post-transplant applications under flooded paddy conditions, ORYSAT (Rice, Tebonnet); settings: for Herbicidal effect rating, ORYSAT: 0.500 kg/ha, post-transplant rice, 3-4 weeks after treatment; for ORYSAT: post-transplanted rice
Method in brief: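 Greenhouse pots of silt loam, each with two transplanted ten-day-old seedlings, are held under 1.5 to 3 cm of standing water. Three days later the compound is applied to the flooded surface at about 0.5, 0.25, 0.125 or 0.063 kg/ha. Damage is scored visually 0-9 after 3-4 weeks.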

GALIUM APARINE = experiment: Postemergence herbicidal evaluation, GALAP (Galium); design: key to GALAP rating / Herbicidal effect rating, GALAP / GALAP: 0-9 visual rating scale vs untreated control
Method in brief: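 In this postemergence greenhouse test, two-week-old Galium aparine seedlings grown in jiffy flats received a 40 psi spray of compound in acetone/water (50/50) with 0.5% TWEEN®20 surfactant. After four to five weeks, stand, vigor, malformation, size, chlorosis and overall appearance were compared with untreated controls on a 0-9 scale, averaging multiple tests.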

CHENOPODIUM ALBUM, L. [7] = experiment: Postemergence herbicidal evaluation, CHEAL (Lambsquarters, Common)
Method in brief: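 Postemergence herbicidal activity on Chenopodium album was tested by spraying two-week-old seedlings grown in jiffy flats with compound in acetone/water (50/50) plus 0.5% TWEEN®20, using a 40 psi nozzle. Four to five weeks after treatment, stand, vigor, malformation, size, chlorosis and overall appearance were scored 0-9 relative to controls, with repeat tests averaged.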

CASSIA OBTUSIFOLIA, L. = experiment: Postemergence herbicidal evaluation, CASOB (Sicklepod); design: key to CASOB rating / Herbicidal effect rating, CASOB / CASOB: 0-9 visual rating scale vs untreated control
Method in brief: as §1

[8] = system: ABUTILON THEOPHRASTI, MEDIC.; experiment: Postemergence herbicidal evaluation, ABUTH (Velvetleaf)
Method in brief: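 This postemergence herbicide test used two-week-old velvetleaf seedlings grown in jiffy flats. Each compound was sprayed at 40 psi as a dispersion in 50/50 acetone/water with 0.5% TWEEN®20 surfactant. Plants then received routine greenhouse care. After four to five weeks, injury was scored visually on a 0-9 scale against a control, and replicate tests were averaged.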

IPOMOEA SPP. = experiment: Postemergence herbicidal evaluation, IPOSS (Morningglory spp.);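 also: higher means more injury with 8 approaching complete kill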
Method in brief: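 In this greenhouse postemergence herbicide test on Ipomoea spp. (morningglory), compounds in 50/50 acetone/water with 0.5% TWEEN®20 were sprayed at 40 psi onto seedlings about two weeks old grown in jiffy flats. After four to five weeks, injury was scored on a 0-9 scale covering stand, vigor, malformation, size, chlorosis and overall appearance versus control, with repeat tests averaged.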

COC(=O)Cn1c(=O)n(C)c(=O)n(-c2cc(Oc3ccc(SC)cc3Cl)ccc2[N+](=O)[O-])c1=O [Compound 34, Methyl 3-{5-[2-chloro-4-(methylthio)-phenoxy]-2-nitrophenyl}tetrahydro-5-methyl-2,4,6-trioxo-s-triazine-1(2H)-acetate]
2.0: TRZAWO rating ([2]; Rate 0.125 kg/ha) | TRZAWO rating ([2]; Rate 0.250 kg/ha) | TRZAWO rating ([2]; Rate 0.500 kg/ha) | AMBEL rating ([5]; Rate 0.125 kg/ha) | AMBEL rating ([5]; Rate 0.250 kg/ha) | AMBEL rating ([5]; Rate 0.500 kg/ha)
0.0: ECHCG rating ([1]; Rate 0.125 kg/ha) | ECHCG rating ([1]; Rate 0.250 kg/ha) | ECHCG rating ([1]; Rate 0.500 kg/ha) | CHEAL herbicidal rating (CHENOPODIUM ALBUM, L. [3]; Rate 0.125 kg/ha) | CHEAL herbicidal rating (CHENOPODIUM ALBUM, L. [3]; Rate 0.250 kg/ha) | CHEAL herbicidal rating (CHENOPODIUM ALBUM, L. [3]; Rate 0.500 kg/ha) | SETVI rating ([4]; Rate 0.125 kg/ha) | SETVI rating ([4]; Rate 0.250 kg/ha) | SETVI rating ([4]; Rate 0.500 kg/ha) | Herbicidal effect rating, ORYSAT [6]

COC(=O)Cn1c(=O)n(C)c(=O)n(-c2cc(Oc3cc(Cl)cc(Cl)c3)ccc2[N+](=O)[O-])c1=O [Compound 35, Methyl 3-[5-(3,5-dichlorophenoxy)-2-nitrophenyl]tetrahydro-5-methyl-2,4,6-trioxo-s-triazine-1(2H)-acetate]
0.0: GALAP rating (GALIUM APARINE; Rate 0.125 kg/ha) | GALAP rating (GALIUM APARINE; Rate 0.250 kg/ha) | GALAP rating (GALIUM APARINE; Rate 0.500 kg/ha) | ECHCG rating ([1]; Rate 0.125 kg/ha) | ECHCG rating ([1]; Rate 0.250 kg/ha) | ECHCG rating ([1]; Rate 0.500 kg/ha) | CHEAL rating (CHENOPODIUM ALBUM, L. [7]; Rate 0.125 kg/ha) | CHEAL rating (CHENOPODIUM ALBUM, L. [7]; Rate 0.250 kg/ha) | CHEAL rating (CHENOPODIUM ALBUM, L. [7]; Rate 0.500 kg/ha) | CASOB rating (CASSIA OBTUSIFOLIA, L.; Rate 0.125 kg/ha) | CASOB rating (CASSIA OBTUSIFOLIA, L.; Rate 0.250 kg/ha) | CASOB rating (CASSIA OBTUSIFOLIA, L.; Rate 0.500 kg/ha) | TRZAWO rating ([2]; Rate 0.125 kg/ha) | TRZAWO rating ([2]; Rate 0.250 kg/ha) | TRZAWO rating ([2]; Rate 0.500 kg/ha) | CHEAL herbicidal rating (CHENOPODIUM ALBUM, L. [3]; Rate 0.500 kg/ha) | ABUTH rating ([8]; Rate 0.125 kg/ha) | ABUTH rating ([8]; Rate 0.250 kg/ha) | ABUTH rating ([8]; Rate 0.500 kg/ha) | SETVI rating ([4]; Rate 0.125 kg/ha) | SETVI rating ([4]; Rate 0.250 kg/ha) | SETVI rating ([4]; Rate 0.500 kg/ha) | AMBEL rating ([5]; Rate 0.125 kg/ha) | AMBEL rating ([5]; Rate 0.250 kg/ha) | AMBEL rating ([5]; Rate 0.500 kg/ha) | Herbicidal effect rating, ORYSAT [6]

Cn1c(=O)[nH]c(=O)n(-c2cccc(Oc3ccc(C(F)(F)F)cc3Cl)c2)c1=O [E, reference compound]
1.0: ECHCG ([1]; Rate 0.250 kg/ha) | TRZAWO ([2]; Rate 0.063 kg/ha) | TRZAWO ([2]; Rate 0.125 kg/ha) | TRZAWO ([2]; Rate 0.250 kg/ha) | SETVI ([4]; Rate 0.250 kg/ha)
8.0: CHEAL (CHENOPODIUM ALBUM, L. [7]; Rate 0.250 kg/ha) | CHEAL (CHENOPODIUM ALBUM, L. [7]; Rate 0.500 kg/ha)
2.5: GALAP (GALIUM APARINE; Rate 0.500 kg/ha)
6.0: IPOSS (IPOMOEA SPP.; Rate 0.500 kg/ha) | ABUTH ([8]; Rate 0.500 kg/ha)
2.0: CASOB (CASSIA OBTUSIFOLIA, L.; Rate 0.063 kg/ha) | CASOB (CASSIA OBTUSIFOLIA, L.; Rate 0.500 kg/ha) | SETVI ([4]; Rate 0.500 kg/ha) | AMBEL ([5]; Rate 0.063 kg/ha) | AMBEL ([5]; Rate 0.125 kg/ha)
7.0: CHEAL (CHENOPODIUM ALBUM, L. [7]; Rate 0.063 kg/ha) | CHEAL (CHENOPODIUM ALBUM, L. [7]; Rate 0.125 kg/ha)
5.0: GALAP (GALIUM APARINE; Rate 0.250 kg/ha) | CASOB (CASSIA OBTUSIFOLIA, L.; Rate 0.250 kg/ha) | IPOSS (IPOMOEA SPP.; Rate 0.063 kg/ha) | IPOSS (IPOMOEA SPP.; Rate 0.125 kg/ha) | IPOSS (IPOMOEA SPP.; Rate 0.250 kg/ha) | ABUTH ([8]; Rate 0.125 kg/ha) | ABUTH ([8]; Rate 0.250 kg/ha) | AMBEL ([5]; Rate 0.500 kg/ha)
4.0: GALAP (GALIUM APARINE; Rate 0.125 kg/ha) | ABUTH ([8]; Rate 0.063 kg/ha) | AMBEL ([5]; Rate 0.250 kg/ha)
0.0: ECHCG ([1]; Rate 0.063 kg/ha) | ECHCG ([1]; Rate 0.125 kg/ha) | SETVI ([4]; Rate 0.063 kg/ha) | SETVI ([4]; Rate 0.125 kg/ha) | ORYSAT ([6]; Rate 0.250 kg/ha) | ORYSAT ([6]; Rate 0.500 kg/ha) | ORYSAT ([6]; Rate 1.000 kg/ha)
1.5: TRZAWO ([2]; Rate 0.500 kg/ha)
3.0: GALAP (GALIUM APARINE; Rate 0.063 kg/ha) | ECHCG ([1]; Rate 0.500 kg/ha) | CASOB (CASSIA OBTUSIFOLIA, L.; Rate 0.125 kg/ha)
